Data on 33 compounds can be found in patent publication US7238716B2, “Alkanoic acid derivatives process for their production and use thereof” (Takeda Pharmaceuticals Company Limited, priority 2000, dated 2007).

A word on the melting point: it is the temperature of the solid-liquid transition. `COC(=O)Cc1ccccc1OCc1cc(OCc2nc(-c3ccccc3)sc2C)no1` [Example 113, methyl 2-[2-[[3-[(5-methyl-2-phenyl-4-thiazolyl)methoxy]-5-isoxazolyl]methoxy]phenyl]acetate] registered a melting point of 108 to 109 °C.
In turn, `Cc1oc(-c2ccccc2)nc1COc1ccc(COc2cncc(CC(=O)O)c2)cc1` [Example 38, 2-[5-[4-[(5-methyl-2-phenyl-4-oxazolyl)methoxy]benzyloxy]-3-pyridyl]acetic acid] came in with a melting point of 139 to 140 °C.
For `Cc1oc(-c2ccccc2)nc1CCc1noc(COc2cccc(CC(=O)O)c2)n1` [Example 109, 2-[3-[[3-[2-(5-methyl-2-phenyl-4-oxazolyl)ethyl]-1,2,4-oxadiazol-5-yl]methoxy]phenyl]acetic acid], the melting point is 93 to 94 °C.
The result for `Cc1sc(-c2ccccc2)nc1COc1cc(COc2ccccc2CC(=O)O)on1` [Example 114, 2-[2-[[3-[(5-methyl-2-phenyl-4-thiazolyl)methoxy]-5-isoxazolyl]methoxy]phenyl]acetic acid] reads 147 to 148 °C.
Consider `Cc1oc(-c2ccccc2)nc1COc1ccc(COc2ccc3ccccc3c2CC(=O)O)cc1` [Example 39, 2-[2-[4-[(5-methyl-2-phenyl-4-oxazolyl)methoxy]benzyloxy]-1-naphthyl]acetic acid], for which the melting point lay within 187 to 188 °C.
The compound `COC(=O)Cc1cccc(OCc2ccc(OC)c(OCc3nc(-c4ccccc4)oc3C)c2)c1` [Example 131, methyl 3-[4-methoxy-3-[(2-phenyl-5-methyl-4-oxazolyl)methoxy]benzyloxy]phenylacetate] displayed a melting point of 88 to 89 °C.
On to `Cc1oc(-c2ccccc2)nc1COc1ccccc1COc1cccc(CC(=O)O)c1` [Example 34, 2-[3-[2-[(5-methyl-2-phenyl-4-oxazolyl)methoxy]benzyloxy]phenyl]acetic acid], for which the melting point is 104 to 105 °C.
`Cc1oc(-c2ccccc2)nc1COc1ccc(COC(=O)Cc2cccc(OCc3ccc(OCc4nc(-c5ccccc5)oc4C)cc3)c2)cc1` [Example 53, 4-[(5-methyl-2-phenyl-4-oxazolyl)methoxy]benzyl 2-[3-[4-[(5-methyl-2-phenyl-4-oxazolyl)methoxy]benzyloxy]phenyl]acetate] had a melting point of 90 to 91 °C.
The result for `Cc1oc(-c2ccccc2)nc1COc1cncc(COc2ccc(CC(=O)O)cc2)c1` [Example 75, 2-[4-[5-[(5-methyl-2-phenyl-4-oxazolyl)methoxy]-3-pyridylmethoxy]phenyl]acetic acid] reads 141 to 142 °C; that for `COC(=O)Cc1ccccc1OCc1cncc(OCc2nc(-c3ccccc3)oc2C)c1` [Example 42, methyl 2-[2-[[5-[(5-methyl-2-phenyl-4-oxazolyl)methoxy]-3-pyridyl]methoxy]phenyl]acetate], 77 to 78 °C; that for `Cc1oc(-c2ccccc2)nc1COc1cccc(COc2cccc(CC(=O)O)c2)n1` [Example 64, 2-[3-[[6-[(5-methyl-2-phenyl-4-oxazolyl)methoxy]-2-pyridyl]methoxy]phenyl]acetic acid], 97 to 98 °C.
Turning to `COC(=O)Cc1ccc(OCc2ccc(OCc3nc(-c4ccccc4)oc3C)cc2)cc1` [Example 8, methyl 2-[4-[4-[(5-methyl-2-phenyl-4-oxazolyl)methoxy]benzyloxy]phenyl]acetate], the melting point lay in the range of 93 to 94 °C.
`Cc1oc(-c2ccccc2)nc1COc1ccc(COc2ncccc2C=CC(=O)O)cc1` [Example 134, 3-[2-[4-[(5-methyl-2-phenyl-4-oxazolyl)methoxy]benzyloxy]-3-pyridyl]propenoic acid] came in with a melting point of 174 to 175 °C.
`CCOc1ccc(OCc2ccccc2OCc2nc(-c3ccccc3)oc2C)cc1CCC(=O)O` [Example 35, 3-[2-ethoxy-5-[2-[(5-methyl-2-phenyl-4-oxazolyl)methoxy]benzyloxy]phenyl]propionic acid] displayed a melting point of 146 to 147 °C.
Regarding `CCOC(=O)C=Cc1cccnc1OCc1ccc(OCc2nc(-c3ccco3)oc2C)c(OC)c1` [Example 135, ethyl 3-[2-[4-[[2-(2-furyl)-5-methyl-4-oxazolyl]methoxy]-3-methoxybenzyloxy]-3-pyridyl]propenoate], the melting point is 85 to 87 °C.
In turn, `Cc1oc(-c2ccccc2)nc1COc1ccc(COc2ccc(-c3ccccc3)cc2CC(=O)O)cc1` [Example 22, 2-[2-[4-[(5-methyl-2-phenyl-4-oxazolyl)methoxy]benzyloxy]-5-phenylphenyl]acetic acid] registered a melting point of 102 to 103 °C.
On to `COC(=O)Cc1cc(Br)ccc1OCc1ccc(OCc2nc(-c3ccccc3)oc2C)cc1` [Example 19, methyl 2-[5-bromo-2-[4-[(5-methyl-2-phenyl-4-oxazolyl)methoxy]benzyloxy]phenyl]acetate], for which the melting point lay within 100 to 101 °C.
`Cc1oc(-c2ccccc2)nc1COc1ccc(COc2ccc(Br)cc2CC(=O)O)cc1` [Example 20, 2-[5-bromo-2-[4-[(5-methyl-2-phenyl-4-oxazolyl)methoxy]benzyloxy]phenyl]acetic acid] returned a melting point of 162 to 163 °C.
The result for `Cc1oc(-c2ccccc2)nc1COc1ccc(COc2ccc3ccccc3c2CCC(=O)O)cc1` [Example 47, 3-[2-[4-[(5-methyl-2-phenyl-4-oxazolyl)methoxy]benzyloxy]-1-naphthyl]propionic acid] reads 161 to 162 °C.
As for `Cc1oc(-c2ccccc2)nc1COc1cccc(COc2ccccc2CC(=O)O)c1` [Example 31, 2-[2-[3-[(5-methyl-2-phenyl-4-oxazolyl)methoxy]benzyloxy]phenyl]acetic acid], the figure is 117 to 118 °C.
Compound `Cc1oc(-c2ccccc2)nc1COc1ccc(COc2ccc(CC(=O)O)cc2)cc1` [Example 9, 2-[4-[4-[(5-methyl-2-phenyl-4-oxazolyl)methoxy]benzyloxy]phenyl]acetic acid] gave a melting point of 166 to 167 °C.
Compound `CCOC(=O)CCc1cccc(OCc2ccc(OCc3nc(-c4ccccc4)oc3C)cc2)c1` [Example 2, ethyl 3-[3-[4-[(5-methyl-2-phenyl-4-oxazolyl)methoxy]benzyloxy]phenyl]propionate] returned a melting point of 90 to 91 °C.
`CCOc1cc(OCc2ccccc2OCc2nc(-c3ccccc3)oc2C)ccc1CCC(=O)O` [Example 73, 3-[2-ethoxy-4-[2-[(5-methyl-2-phenyl-4-oxazolyl)methoxy]benzyloxy]phenyl]propionic acid] gave a melting point of 112 to 113 °C.
Consider `COC(=O)Cc1cc(C)ccc1OCc1ccc(OCc2nc(-c3ccccc3)oc2C)cc1` [Example 14, methyl 2-[5-methyl-2-[4-[(5-methyl-2-phenyl-4-oxazolyl)methoxy]benzyloxy]phenyl]acetate], for which the melting point was 80 to 81 °C.
On to `COC(=O)Cc1cc(OC)ccc1OCc1ccc(OCc2nc(-c3ccccc3)oc2C)cc1` [Example 23, methyl 2-[5-methoxy-2-[4-[(5-methyl-2-phenyl-4-oxazolyl)methoxy]benzyloxy]phenyl]acetate], for which the melting point fell in the range of 160 to 161 °C.
In the case of `Cc1oc(-c2ccccc2)nc1COc1cccc(COc2ccc(CC(=O)O)cc2)c1` [Example 68, 2-[4-[3-[(5-methyl-2-phenyl-4-oxazolyl)methoxy]benzyloxy]phenyl]acetic acid], the melting point is 179 to 180 °C.
Take `Cc1oc(-c2ccccc2)nc1COc1ccc(COc2cccc(CCC(=O)O)c2)cc1` [Example 3, 3-[3-[4-[(5-methyl-2-phenyl-4-oxazolyl)methoxy]benzyloxy]phenyl]propionic acid]: the melting point fell in the range of 157 to 158 °C.
The result for `Cc1oc(-c2ccccc2)nc1CCc1nc(COc2cccc(CC(=O)O)c2)cs1` [Example 105, 2-[3-[[2-[2-(5-methyl-2-phenyl-4-oxazolyl)ethyl]-4-thiazolyl]methoxy]phenyl]acetic acid] reads 153 to 154 °C.
In turn, `Cc1oc(-c2ccccc2)nc1COc1ccc(COc2ccc(O)cc2CC(=O)O)cc1` [Example 16, 2-[5-hydroxy-2-[4-[(5-methyl-2-phenyl-4-oxazolyl)methoxy]benzyloxy]phenyl]acetic acid] returned a melting point of 194 to 195 °C.
The compound `Cc1sc(-c2ccccc2)nc1CCOc1cc(COc2ccccc2CC(=O)O)on1` [Example 117, 2-[2-[[3-[2-(5-methyl-2-phenyl-4-thiazolyl)ethoxy]-5-isoxazolyl]methoxy]phenyl]acetic acid] had a melting point of 159 to 160 °C.
For `COC(=O)Cc1ccccc1OCc1ccc(OCc2nc(-c3ccccc3)sc2C)nc1` [Example 121, methyl 2-[2-[[6-[(5-methyl-2-phenyl-4-thiazolyl)methoxy]-3-pyridyl]methoxy]phenyl]acetate], the melting point lay within 119 to 120 °C.
As for `Cc1oc(-c2ccccc2)nc1COc1ccc(CSc2ccc(CCC(=O)O)cc2)cc1` [Example 67, 3-[4-[[4-[(5-methyl-2-phenyl-4-oxazolyl)methoxy]benzyl]sulfanyl]phenyl]propionic acid], the figure is 157 to 158 °C; as for `Cc1oc(-c2ccccc2)nc1COc1ccccc1COc1ccccc1CC(=O)O` [Example 56, 2-[2-[2-[(5-methyl-2-phenyl-4-oxazolyl)methoxy]benzyloxy]phenyl]acetic acid], 145 to 146 °C.
